Reference: ChEMBL document CHEMBL3045733, “3D-QSAR and molecular docking studies of hydroxamic acids as peptide deformylase inhibitors” (Med Chem Res, 2012)

assay: Inhibition of peptide deformylase using N-formylmethionine-alanine-serineas substrate incubated for 10 min before substrate addition by PDF-FDH coupled assay

Structure (SMILES) | pIC50
CCCC[C@@H](C(=O)N1CC[C@H]1C(=O)NCCC)[C@H](O)C(=O)NO | 8.17
O=C(CN(CCC1CCCC1)C(=O)N1CCC[C@H]1C(=O)Nc1cnccn1)NO | 7.27
CCCC[C@@H](C(=O)N1CCC[C@H]1C(=O)N1CCCCC1)[C@H](F)C(=O)NO | 7.66
CNC(=O)[C@@H]1CCCN1C(=O)N(CCC(C)C)CC(=O)NO | 7.21
CCCC[C@@H](C(=O)N1CCC[C@H]1C(=O)OC(C)(C)C)[C@H](OS(=O)(=O)O)C(=O)NO | 7.52
CCCC[C@@H](C(=O)N1CCC[C@H]1C(=O)OC(C)(C)C)[C@@H](O)C(=O)NO | 8.22
CCCC[C@@H](C(=O)N1CCC[C@H]1C(=O)N1CCC1)[C@H](F)C(=O)NO | 7.54
CCCC[C@@H](C(=O)N1CCC[C@H]1C(=O)NC1CCCCC1)[C@H](O)C(=O)NO | 8.52
CCCC[C@@H](C(=O)N1CCC[C@H]1C(=O)N1CCCC1)[C@H](O)C(=O)NO | 7.62
CCCC[C@@H](C(=O)N1CCC[C@H]1C(=O)N1CCN(c2ncccn2)CC1)[C@H](O)C(=O)NO | 8.52
CCCC[C@@H](C(=O)N1CCC[C@H]1C(=O)N1CCC1)[C@H](O)C(=O)NO | 7.77
CCCC[C@@H](C(=O)N1CCC[C@H]1C(=O)N1CCN(c2ncccn2)CC1)[C@H](F)C(=O)NO | 8.22
CCCC[C@@H](C(=O)N1CCC[C@H]1C(=O)N1CCCCC1)[C@H](O)C(=O)NO | 7.89
O=C(CN(CCC1CCCC1)C(=O)N1CCC[C@H]1C(=O)Nc1ncccn1)NO | 7.68
CCCC[C@@H](C(=O)N1CCC[C@H]1C(=O)N1CCOCC1)[C@H](F)C(=O)NO | 7.89
CCCC[C@@H](C(=O)N1CCC[C@H]1C(=O)NC1CCCCC1)[C@H](F)C(=O)NO | 8.04
CC(C)CCNC(=O)[C@@H]1CCCN1C(=O)N(CCC(C)C)CC(=O)NO | 7.92
O=C(CN(CCC1CCCC1)C(=O)N1CCC[C@H]1C(=O)Nc1cccc(O)c1)NO | 7.77
O=C(CN(CCC1CCCC1)C(=O)N1CCC[C@H]1C(=O)Nc1ccc2c(c1)OCO2)NO | 8.1
CCCC[C@@H](C(=O)N1CCC[C@H]1C(=O)OC(C)(C)C)[C@@H](OC)C(=O)NO | 7.3

Next, values leading:

pIC50 | Structure (SMILES)
7.89 | CCCC[C@@H](C(=O)N1CCC[C@H]1C(=O)NCCC)[C@H](F)C(=O)NO
7.74 | CCc1nnc(NC(=O)[C@@H]2CCCN2C(=O)N(CCC(C)C)CC(=O)NO)s1
8.1 | CCCC[C@@H](C(=O)N1CCC[C@H]1C(=O)NCCC)[C@H](O)C(=O)NO
7.17 | O=C(CN(CCC1CCCC1)C(=O)N1CCC[C@H]1C(=O)Nc1nccc(-c2ccccc2)n1)NO
8 | CCCC[C@@H](C(=O)N1CCC[C@H]1C(=O)NC)[C@H](O)C(=O)NO
7.57 | CCCC[C@@H](C(=O)N1CCC[C@H]1C(=O)NC)[C@@H](F)C(=O)NO
7.89 | CCCCCNC(=O)[C@@H]1CCCN1C(=O)[C@H](CCCC)[C@H](F)C(=O)NO
8.04 | CCCC[C@H](CC(=O)NO)C(=O)N1CCC[C@H]1C(=O)Nc1nc(-c2ccccc2)cs1
7.8 | CCCCNC(=O)[C@@H]1CCCN1C(=O)[C@H](CCCC)[C@H](F)C(=O)NO
6.49 | CC(C)CCN(CC(=O)NO)C(=O)N1CCC[C@H]1C(=O)Nc1nccs1
8.17 | CCCC[C@@H](C(=O)N1CCCC[C@H]1C(=O)NCCC)[C@H](O)C(=O)NO
7.8 | C=CCNC(=O)[C@@H]1CCCN1C(=O)[C@H](CCCC)[C@@H](F)C(=O)NO
8.15 | CCCC[C@@H](C(=O)N1CCC[C@H]1C(=O)NC(C)C)[C@H](O)C(=O)NO
8.52 | Cc1nc(NC(=O)[C@@H]2CCCN2C(=O)N(CCC(C)C)CC(=O)NO)sc1C
8.7 | Cc1nc(NC(=O)[C@@H]2CCCN2C(=O)N(CCC2CCCC2)CC(=O)NO)sc1C
8.7 | CCCC[C@@H](C(=O)N1CCC[C@H]1C(=O)Nc1nc(C)c(C)s1)[C@H](F)C(=O)NO
8.52 | CCCC[C@H](CC(=O)NO)C(=O)N1CCC[C@H]1C(=O)Nc1nc2ccccc2s1
8.22 | CCCC[C@@H](C(=O)N1CCC[C@H]1C(=O)N1CCN(c2ccccc2F)CC1)[C@H](F)C(=O)NO
8.15 | CCCC[C@@H](C(=O)N1CCC[C@H]1C(=O)NCC(O)CC)[C@H](F)C(=O)NO (some centres undefined)
8.1 | CCCCCNC(=O)[C@@H]1CCCN1C(=O)[C@H](CCCC)[C@H](O)C(=O)NO
7.2 | Cc1cnc(NC(=O)[C@@H]2CCCN2C(=O)N(CCC(C)C)CC(=O)NO)s1
8.3 | CCCC[C@@H](C(=O)N1CCC[C@H]1C(=O)N1CCN(c2ccccc2F)CC1)[C@H](O)C(=O)NO
9 | CCCC[C@@H](C(=O)N1CCC[C@H]1C(=O)Nc1ccc(Cl)c(Cl)c1)[C@H](F)C(=O)NO
8.7 | CCCC[C@@H](C(=O)N1CCC[C@H]1C(=O)Nc1nc(C)c(C)s1)[C@@H](F)C(=O)NO
7.92 | Cc1nnc(NC(=O)[C@@H]2CCCN2C(=O)N(CCC(C)C)CC(=O)NO)s1
7.96 | CC(C)CCN(CC(=O)NO)C(=O)N1CCC[C@H]1C(=O)Nc1ccc2c(c1)OCO2
8.1 | CCCC[C@@H](C(=O)N1CCC[C@H]1C(=O)NC(C)(C)CC)[C@H](O)C(=O)NO
7.01 | CC(C)CCN(CC(=O)NO)C(=O)N1CCC[C@H]1C(=O)Nc1nnc(-c2ccccc2)s1
8 | CCCC[C@H](CC(=O)NO)C(=O)N1CCC[C@H]1C(=O)NC
